Reference: patent US20240100050A1, “MDM2 INHIBITORS AND USES THEREOF” (PMV Pharmaceuticals, Inc., priority 2022, published 2024)

Columns and labels:
SJSA1 tumors = assay: Intratumoral dosing regimens of navtemadlin in SJSA1 tumors: tumor volume / % tumor inhibition; format: in vivo, human; details: for % TGI Day 24: compared to the vehicle
Method: A study was conducted to compare differences between dosing regimens of navtemadlin administered to SJSA1 tumors. S.ISa-1 is a human […] cell line. Navtemadlin is an MDM2 inhibitor compound of the disclosure. […]
(§1) FIG. 2 panels A and B show the effects of intratumoral dosing regimens of navtemadlin in SJSA1 tumors, such as on tumor volume (mm 3) and % body weight change.

[1] = % body weight change in the SJSA1 tumor dosing regimen study; format: in vivo; details: SJSA1 tumors
Method: A study was conducted to compare differences between dosing regimens of navtemadlin administered to SJSA1 tumors. S.ISa-1 is a human […] cell line. Navtemadlin is an MDM2 inhibitor compound of the disclosure. Navtemadlin was administered intratumorally as 20 μL of 100 mg/mL navtemadlin Q3D×9, 20 μL of 100 mg/mL navtemadlin Q7D×5, 20 μL of 100 mg/mL navtemadlin Q14D×3, and 20 μL of 25 mg/mL navtemadlin QD×31.
as §1

[2] = intratumorally 20 μL of 25 mg/mL QD×31
[3] = intratumorally 20 μL of 100 mg/mL Q3D×9
[4] = intratumorally 20 μL of 100 mg/mL Q7D×5
[5] = intratumorally 20 μL of 100 mg/mL Q14D×3

Compound: CC(C)[C@@H](CS(=O)(=O)C(C)C)N1C(=O)[C@@](C)(CC(=O)O)C[C@H](c2cccc(Cl)c2)[C@H]1c1ccc(Cl)cc1 [navtemadlin]
- % TGI Day 24 (SJSA1 tumors; Q3Dx21 IT): 94%
- % TGI Day 24 (SJSA1 tumors; Q7Dx21 IT): 94%
- % TGI Day 24 (SJSA1 tumors; Q14Dx21 IT): 94%
- % TGI Day 24 (SJSA1 tumors; QDx21 PO): 94%
- tumor volume (SJSA1 tumors; [2]): significant tumor volume reduction
- tumor volume (SJSA1 tumors; [3]): significant tumor volume reduction
- tumor volume (SJSA1 tumors; [4]): significant tumor volume reduction
- tumor volume (SJSA1 tumors; [5]): significant tumor volume reduction
- % body weight change [1, 2]: not significantly affecting % body weight change
- % body weight change [1, 3]: not significantly affecting % body weight change
- % body weight change [1, 4]: not significantly affecting % body weight change
- % body weight change [1, 5]: not significantly affecting % body weight change
